Values quoted from earlier work, collected in patent US20190219580A1, “METHODS OF DRUG THERAPY SELECTION FOR BREAST CANCER PATIENTS BASED ON HER2 AND HER3 PATHWAY SUBTYPING” (Nestec S.A., priority 2016, published 2019).
Like-named read-outs stand apart in the source and are kept apart here.

How the values were obtained:
[1] = test system: progressive, locally advanced, or metastatic HER2-positive breast cancer; settings: human, in vivo
[2] = test system: HER2-positive metastatic and locally advanced breast cancer; settings: first-line therapy
[3] = test system: HER2-positive breast cancer
[4] = test system: HER2-positive, locally advanced disease without previous treatment
breast cancer = settings: monotherapy
[5] = test system: tumor xenografts which overexpress HER2; settings: in vivo
[6] = trastuzumab-refractory patients

Structure (SMILES) | median TTP [1] | overall response rate [2] | toxicity in the run-in phase ([3]; with EC-DOC) | pCR rate (no invasive disease in breast) ([3]; with epirubicin, cyclophosphamide followed by docetaxel (EC-DOC), n=620) | pCR rate ([4]; patients with low PTEN expression and PI3 kinase mutation) | pCR rate ([4]; single agent first, followed by trastuzumab/docetaxel ×4 cycles) | response rate (breast cancer; trastuzumab-naive patients) | response rate (breast cancer; [6]) | phosphorylation of MAPK and AKT signal transduction pathways (BT474 cell lines) | tumor growth [5]
CCCCCOC(=O)Nc1nc(=O)n([C@@H]2O[C@H](C)[C@@H](O)[C@H]2O)cc1F [capecitabine] | 4.4 months | – | – | – | – | – | – | – | – | –
CS(=O)(=O)CCNCc1ccc(-c2ccc3ncnc(Nc4ccc(OCc5cccc(F)c5)c(Cl)c4)c3c2)o1 [lapatinib] | – | 24% | lowered due to toxicity | 35% | 87% | 68% | 24% | 5.1% | – | –
CCOc1cc2ncc(C#N)c(Nc3ccc(OCc4ccccn4)c(Cl)c3)c2cc1NC(=O)/C=C/CN(C)C [neratinib] | – | – | – | – | – | – | 56% | 26% | effectively repressed | repress tumor growth in a dose-dependent manner
